From patent US20250346616A1 (DIZAL (JIANGSU) PHARMACEUTICAL CO., LTD., priority 2022, published 2025)

How the values were obtained:
pMYPT1 = assay: Cellular PD assay, pMYPT1 in PASMC (western blot); format: cell-based; settings: PASMC, 0.5 h; Human Pulmonary Artery Smooth Muscle Cells, 30 min incubation
Experimental: (§1) PASMC (Human Pulmonary Artery Smooth Muscle Cells) were grown in Smooth Muscle Cell Growth medium (Promocell #C-22162). The cells were resuspended at 3×10^5 cells per well in 6-well plate in Smooth Muscle Cell Growth medium (Promocell #C-22162) and incubated compound concentration range: (10000/1111/333/111/37/12.3/4.1/0.41/0 nM) for 30 min.
(§2) Cells were then placed on ice and washed with ice-cold PBS. Cell lysates were prepared with 2×SDS. Separate proteins by SDS-PAGE 2 hr, transfer of proteins form gel to membrane 90 min, Blocking the membrane with 5% milk 1 hr and incubation in primary antibody overnight at 4° C., Incubate the membrane in HRP-conjugated secondary antibody diluted in blocking buffer (1:2000) for 1 hour at room temperature. Detection using Amersham ECL plus western blotting detection system (LAS4000). The purified product was analysed by SDS PAGE and the amount of target protein calculated by gray scanning by Multi-Gauge V3.0 software.

Recombinant ROCK2 = Recombinant ROCK2 (Homo sapiens (Human), UniProt O75116); assay: Lance Ultra Kinase Assay, ROCK2 inhibition; format: biochemical; settings: ATP at Km, 30 min pre-incubation, 1 h reaction
Experimental: The inhibition potency of compounds against these enzymes was assessed using Lance Ultra Kinase Assay. In brief, recombinant kinases were pre-incubated in the presence or absence of compound at room temperature for 30 minutes. The reaction was initiated by the addition of the ATP (Km) and substrate peptide which could be phosphorylated by kinases in the reaction. After 1 h incubation, the reaction was stopped by the addition of the detection reagent mix containing EDTA. The fluorescence was measured at 615 nm and 665 nm, respectively with excitation wavelength at 320 nm. The calculated signal ratio of 665 nm/615 nm is proportional to the kinase activity.

Recombinant ROCK1 = Recombinant ROCK1 (Homo sapiens (Human), UniProt Q13464); assay: Lance Ultra Kinase Assay, ROCK1 inhibition; format: biochemical; settings: ATP at Km, 30 min pre-incubation, 1 h reaction
pMLC2 = assay: Cellular PD assay, pMLC2 in PASMC (western blot); format: cell-based; settings: PASMC, 0.5 h; Human Pulmonary Artery Smooth Muscle Cells, 30 min incubation
Experimental: as §1, §2

HepG2 cells = assay: Cell-based phospholipidosis assay (LipidTOX Red); settings: Homo sapiens, 24 h, LipidTOX Red dye
Experimental: HepG2 cells were dispensed into Collagen I-coated 96-well black wall/clear bottom assay plates at 5000 cells/90 μL/well.
The assay plates were then incubated at 37° C. for 24 h, […] of 8% paraformaldehyde (4% final) fixative solution containing 8 μg/ml Hoechst 33342 (4 ug/mL final) in DPBS was added to each well. After incubation at room temperature for 25 min, the assay plates were washed with DPBS. The assay plates were sealed and stored at 4° C. before imaging.
The fluorescence intensities (595 nm excitation, 615 nm emission for LipidTOX Red; 352 nm excitation, 461 nm emission for Hoechst 33342) were measured using an High Content Screening System (Operetta, PerkinElmer) with a 10×Fluor objective. […] Average intensities were subjected to Prism and EC50 were calculated.

Chain of Recombinant ROCK1 (Q13464 whole entry): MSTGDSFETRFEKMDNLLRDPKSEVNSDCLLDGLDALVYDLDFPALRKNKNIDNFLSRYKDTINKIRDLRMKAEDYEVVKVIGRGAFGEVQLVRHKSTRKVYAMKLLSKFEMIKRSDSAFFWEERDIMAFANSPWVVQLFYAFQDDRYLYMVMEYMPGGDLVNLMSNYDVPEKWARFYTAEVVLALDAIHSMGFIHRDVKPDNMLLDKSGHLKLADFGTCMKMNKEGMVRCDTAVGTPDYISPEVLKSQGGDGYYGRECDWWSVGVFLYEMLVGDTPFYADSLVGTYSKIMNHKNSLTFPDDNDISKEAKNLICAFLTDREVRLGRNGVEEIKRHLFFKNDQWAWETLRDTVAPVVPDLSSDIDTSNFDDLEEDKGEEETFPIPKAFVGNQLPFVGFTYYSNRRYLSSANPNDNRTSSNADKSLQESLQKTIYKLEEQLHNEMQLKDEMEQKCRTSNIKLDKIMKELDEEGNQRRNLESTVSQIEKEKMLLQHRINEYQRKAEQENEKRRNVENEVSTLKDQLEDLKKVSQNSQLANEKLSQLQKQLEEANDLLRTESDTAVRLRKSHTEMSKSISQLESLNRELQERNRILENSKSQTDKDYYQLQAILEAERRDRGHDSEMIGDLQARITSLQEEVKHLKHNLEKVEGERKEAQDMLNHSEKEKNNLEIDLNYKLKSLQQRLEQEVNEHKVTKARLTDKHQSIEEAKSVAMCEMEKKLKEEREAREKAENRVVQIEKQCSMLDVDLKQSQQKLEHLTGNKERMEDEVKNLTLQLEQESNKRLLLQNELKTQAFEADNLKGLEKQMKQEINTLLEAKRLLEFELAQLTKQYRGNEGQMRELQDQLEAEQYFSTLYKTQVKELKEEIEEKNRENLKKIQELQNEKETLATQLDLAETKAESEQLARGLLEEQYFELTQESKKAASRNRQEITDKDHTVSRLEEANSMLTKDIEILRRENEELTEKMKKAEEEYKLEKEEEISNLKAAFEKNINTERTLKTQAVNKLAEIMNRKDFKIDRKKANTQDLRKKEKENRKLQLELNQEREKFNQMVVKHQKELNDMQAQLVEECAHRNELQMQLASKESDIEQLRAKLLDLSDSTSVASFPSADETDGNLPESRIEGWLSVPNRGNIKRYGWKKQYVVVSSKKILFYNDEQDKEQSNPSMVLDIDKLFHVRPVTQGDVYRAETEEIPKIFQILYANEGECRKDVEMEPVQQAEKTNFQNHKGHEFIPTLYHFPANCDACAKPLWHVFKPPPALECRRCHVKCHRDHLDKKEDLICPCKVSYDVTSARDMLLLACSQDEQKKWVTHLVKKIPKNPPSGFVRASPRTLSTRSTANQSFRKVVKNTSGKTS
Chain of Recombinant ROCK2 (O75116 whole entry): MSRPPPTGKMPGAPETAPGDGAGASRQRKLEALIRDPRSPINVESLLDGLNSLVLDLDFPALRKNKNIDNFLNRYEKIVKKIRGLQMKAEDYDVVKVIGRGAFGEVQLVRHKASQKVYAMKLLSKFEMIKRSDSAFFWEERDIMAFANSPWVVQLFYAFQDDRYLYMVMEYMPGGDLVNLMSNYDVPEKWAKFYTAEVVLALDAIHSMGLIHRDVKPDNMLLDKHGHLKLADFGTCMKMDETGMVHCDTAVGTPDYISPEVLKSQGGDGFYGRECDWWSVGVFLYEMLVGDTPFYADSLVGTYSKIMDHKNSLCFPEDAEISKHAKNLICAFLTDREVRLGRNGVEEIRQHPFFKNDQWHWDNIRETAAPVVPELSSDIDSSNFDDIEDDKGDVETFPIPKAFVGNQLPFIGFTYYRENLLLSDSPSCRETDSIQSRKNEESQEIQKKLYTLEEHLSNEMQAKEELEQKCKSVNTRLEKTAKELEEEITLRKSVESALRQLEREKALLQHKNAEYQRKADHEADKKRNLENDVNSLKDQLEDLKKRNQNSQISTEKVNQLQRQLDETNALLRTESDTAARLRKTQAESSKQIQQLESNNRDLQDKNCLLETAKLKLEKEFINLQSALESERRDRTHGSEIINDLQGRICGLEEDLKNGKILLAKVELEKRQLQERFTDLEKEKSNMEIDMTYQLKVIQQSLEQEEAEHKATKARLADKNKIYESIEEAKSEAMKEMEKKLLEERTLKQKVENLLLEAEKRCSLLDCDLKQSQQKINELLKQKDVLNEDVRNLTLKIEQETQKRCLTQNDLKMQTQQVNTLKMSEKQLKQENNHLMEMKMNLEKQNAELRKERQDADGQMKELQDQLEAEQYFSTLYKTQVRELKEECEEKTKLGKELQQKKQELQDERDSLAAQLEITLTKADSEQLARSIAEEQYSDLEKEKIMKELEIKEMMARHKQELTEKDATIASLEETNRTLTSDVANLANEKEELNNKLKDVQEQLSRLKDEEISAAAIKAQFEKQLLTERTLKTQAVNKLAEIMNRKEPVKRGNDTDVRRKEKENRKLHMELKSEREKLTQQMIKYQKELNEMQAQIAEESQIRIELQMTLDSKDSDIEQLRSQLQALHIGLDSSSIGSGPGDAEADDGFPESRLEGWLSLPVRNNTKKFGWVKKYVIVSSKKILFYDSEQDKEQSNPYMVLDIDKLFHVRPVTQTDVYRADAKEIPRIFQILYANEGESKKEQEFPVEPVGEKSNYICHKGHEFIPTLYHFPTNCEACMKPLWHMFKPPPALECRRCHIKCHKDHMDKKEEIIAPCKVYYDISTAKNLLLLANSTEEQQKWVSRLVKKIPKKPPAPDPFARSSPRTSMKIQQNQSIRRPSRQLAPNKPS

| SMILES | IC50 (pMYPT1) | IC50 (Recombinant ROCK2) | IC50 (Recombinant ROCK1) | IC50 (pMLC2) | EC50 (HepG2 cells) |
| --- | --- | --- | --- | --- | --- |
| N#Cc1ccc(C(CN)C(=O)Nc2cccc3c(-c4cn[nH]c4)c[nH]c23)cc1 (single isomer, unassigned) [Example 59, N-(3-(1H-pyrazol-4-yl)-1H-indol-7-yl)-3-amino-2-(4-cyanophenyl)propanamide] | 155 nM | 0.83 nM | 2.7 nM | 61 nM | > 66.6 µM |
| NCC(C(=O)Nc1cccc2c(-c3cn[nH]c3)c[nH]c12)C1CCOCC1 (single isomer, unassigned) [Example 26, N-(3-(1H-pyrazol-4-yl)-1H-indol-7-yl)-3-amino-2-(tetrahydro-2H-pyran-4-yl)propanamide] | 153 nM | 0.96 nM | 1.4 nM | 85 nM | > 200 µM |
| NCC(C(=O)Nc1cccc2c(-c3cn[nH]c3)c[nH]c12)c1cccnc1 (single isomer, unassigned) [Example 32, N-(3-(1H-pyrazol-4-yl)-1H-indol-7-yl)-3-amino-2-(pyridin-3-yl)propanamide] | 62 nM | 0.24 nM | 0.55 nM | 42 nM | > 200 µM |
| NCC(C(=O)Nc1cccc2c(-c3cn[nH]c3)c[nH]c12)c1ccc(CO)cc1 (single isomer, unassigned) [Example 3, N-(3-(1H-pyrazol-4-yl)-1H-indol-7-yl)-3-amino-2-(4-(hydroxymethyl)phenyl)propanamide] | 99 nM | 0.17 nM | 0.33 nM | 46 nM | > 200 µM |
| N#Cc1cccc(C(CN)C(=O)Nc2cccc3c(-c4cn[nH]c4)c[nH]c23)c1 (single isomer, unassigned) [Example 20, N-(3-(1H-pyrazol-4-yl)-1H-indol-7-yl)-3-amino-2-(3-cyanophenyl)propanamide] | 41 nM | 1.3 nM | 2.8 nM | 38 nM | > 200 µM |

Stronger by IC50 (pMYPT1), values ahead:

| IC50 (pMYPT1) | IC50 (Recombinant ROCK2) | IC50 (Recombinant ROCK1) | IC50 (pMLC2) | SMILES | EC50 (HepG2 cells) |
| --- | --- | --- | --- | --- | --- |
| 13 nM | 0.26 nM | 0.44 nM | 8.2 nM | CN1CCN(CC(C(=O)Nc2cccc3c(-c4cn[nH]c4)c[nH]c23)c2ccccc2)CC1 (single isomer, unassigned) [Example 38, N-(3-(1H-pyrazol-4-yl)-1H-indol-7-yl)-3-(4-methylpiperazin-1-yl)-2-phenylpropanamide] | 6.23 µM |
| 5.6 nM | 0.14 nM | 0.3 nM | 4.2 nM | COc1cccc(C(CN)C(=O)Nc2cccc3c(-c4cn[nH]c4)c[nH]c23)c1 (single isomer, unassigned) [Example 18, N-(3-(1H-pyrazol-4-yl)-1H-indol-7-yl)-3-amino-2-(3-methoxyphenyl)propanamide] | 10.9 µM |
| 2.8 nM | 0.1 nM | 0.18 nM | 3 nM | COc1cccc([C@@H](N)C(=O)Nc2cccc3c(-c4cn[nH]c4)c[nH]c23)c1 [Example 42, (2R)-2-amino-2-(3-methoxyphenyl)-N-[3-(1H-pyrazol-4-yl)-1H-indol-7-yl]acetamide] | > 200 µM |
